Assay results: article PMC7046733, “Plantaricin NC8 αβ exerts potent antimicrobial activity against Staphylococcus spp. and enhances the effects of antibiotics” (Scientific Reports, 2020)
Residues, ends and D or L forms follow the SMILES beside them.

Test system: Trypsin
Experiment: Proteolytic degradation
Type: in vitro ADME
Conditions: peptide 100 µM, trypsin 0.125 mg/ml (~5 µM), ammonium bicarbonate buffer 50 mM pH 8.5, 16 h, 37 °C, MALDI-ToF MS
Description: Samples were resuspended in MQ-water containing 0.1% TFA, desalted using ZipTip-C18 columns (Millipore) and analyzed using MALDI-ToF with α-cyano-4-hydroxycinnamic acid as matrix.

`CC(C)C[C@H](NC(=O)[C@H](Cc1ccc(O)cc1)NC(=O)[C@H](Cc1ccc(O)cc1)NC(=O)CNC(=O)[C@H](Cc1c[nH]c2ccccc12)NC(=O)[C@H](CO)NC(=O)[C@H](CO)NC(=O)[C@H](Cc1c[nH]c2ccccc12)NC(=O)[C@H](CC(C)C)NC(=O)[C@H](CCCCN)NC(=O)[C@@H](NC(=O)[C@@H](NC(=O)[C@H](CC(C)C)NC(=O)[C@@H](N)CC(=O)O)[C@@H](C)O)[C@@H](C)O)C(=O)NCC(=O)N[C@@H](CCCCN)C(=O)N[C@@H](CCCCN)C(=O)N[C@@H](C)C(=O)N[C@@H](CCCNC(=N)N)C(=O)N[C@@H](Cc1c[nH]c2ccccc12)C(=O)N[C@@H](CC(N)=O)C(=O)N[C@@H](CC(C)C)C(=O)N[C@@H](CCCCN)C(=O)N[C@@H](Cc1c[nH]cn1)C(=O)N1CCC[C@H]1C(=O)N[C@@H](Cc1ccc(O)cc1)C(=O)N[C@H](C(=O)N[C@@H](CCC(N)=O)C(=O)N[C@@H](Cc1ccccc1)C(=O)O)C(C)C` [L-PLNC8 α] (H-DLTTKLWSSWGYYLGKKARWNLKHPYVQF-OH) was tested, and the degradation by trypsin was “efficiently degraded by trypsin”.
